PMC5078090, “In vivo screening and discovery of novel candidate thalidomide analogs in the zebrafish embryo and chicken embryo model systems” (Oncotarget, 2016)
“Also recorded” adds a separate entry of the source.

What was measured:
[1] = tested on: fli1:EGFP zebrafish embryos; test: fli1:EGFP zebrafish embryo angiogenesis assay (intersegmental vessel outgrowth and number); type: in vivo; conditions: for Anti-angiogenic activity (loss of ISVs or inhibition of ISV outgrowth): fli1:EGFP embryos, 24 h incubation, result in words; for minimal effective concentration: Danio rerio, 24 h, 24 hpf embryos exposed 24 h, screened 1-200 μg/mL, where no activity was seen the concentration shown is the lowest screened; for Lowest effective anti-angiogenic concentration, fli1:EGFP assay (molar): inhibition of vessel outgrowth and number, 24 h exposure
Procedure: To determine if our novel thalidomide analogs (Figure 1) had any effect on in vivo angiogenesis, we used fli1:EGFP embryos which express green fluorescent protein (GFP) on endothelial cells throughout development. Embryos were allowed to develop for 24 hours, then exposed to either vehicle or a compound of interest at the concentration range of 1 to 200 μg/mL. During this time the vasculature is rapidly expanding and developing new, naive intersegmental vessels (ISVs). The embryos were imaged after 24 hours of incubation with the drug (Figure 2A). […] We also observed that the potency of each compound varied.
Figure 2 The effect of novel thalidomide analogs on vessel length fli1:EGFP zebrafish were incubated with vehicle or compounds for 24 hours, at which point vessel outgrowth and number were measured. A. Images of zebrafish exposed to the vehicle or test compounds. […] Treatment with C4 (1.5 μg/mL), C18 (50 μg/mL), C81 (50 μg/mL), C82 (5 μg/mL), C83 (20 μg/mL) and C84 (50 μg/mL) show reduction in vessel out growth (white arrow) and in some cases loss of vessel (white asterisks). B. Stalk length & C. stalk number are reduced. Compounds are shown at the lowest concentration producing an effect. The data represent the mean + the standard error of the mean.
Zebrafish embryos were treated with analogs as previously described. Briefly, fli1:EGFP embryos were collected and embryos were allowed to develop for 24 hours. Embryos were dechorionated manually and exposed to test compounds or vehicle control (0.1% DMSO) for a further 24 hours. Embryos were anesthetized with 0.05% MS222 (Tricaine) (Sigma Aldrich) and live visualization of blood vessels was carried out.
(§1) A broad series of novel thalidomide-based compounds were chemically synthesized (WL, NHG and WDF, NIH), dissolved in DMSO, stored in stock concentrations between 10-100 mg/mL, and used at a final working DMSO concentration of 0.1%. The chemical structures of lead compounds of interest were confirmed by chemical characterization (purity >99.5%). Compounds were screened across a range of concentrations from 1-200 μg/mL to determine the lowest effective concentration.

chicken embryos = test: In ovo chicken embryo teratogenicity assay; type: in vivo, white leghorn chicken; conditions: for Damage observed: HH stage 17-18 chicken embryos, 100 μg/mL; for Lowest effective concentration, Chicken assay: HH stage 17-18 embryos, where no activity was seen the concentration shown is the lowest screened; for Teratogenicity in these assays: chicken and zebrafish embryo assays together, result in words
Procedure: Compounds of interest were screened in chicken and/or zebrafish embryos (Figure 4), to determine if these compounds are teratogenic. The chicken embryo is well established as a model to determine the action of compounds upon development.
Fertilized white leghorn chicken embryos were incubated at 38°C and staged according to the Hamburger and Hamilton (HH) stages of development. Embryos were tested at HH stage 17-18 (day 2.5). Following membrane removal test compounds or vehicle control solutions were applied over the embryo. The eggs were sealed and the development of the embryos was monitored up to HH stage 30 (E9). A minimum of 3 embryos were used per concentration, per drug.

[2] = tested on: Tg(MPO::EGFP)^114 zebrafish; test: Tg(MPO::EGFP)^114 zebrafish tail fin clip assay of neutrophil migration to the wound site; type: in vivo; conditions: for minimal effective concentration: Danio rerio, Neutrophil, fin clipped at 72 hpf, imaged at 24 h, screened 1-200 μg/mL, where no activity was seen the concentration shown is the lowest screened; for Effect on neutrophil migration to the wound site (anti-inflammatory activity): fin clipped 72 hpf embryos, result in words
From the text: To assess the immunomodulatory effects of the thalidomide analogs across the concentration range used in the previous assay, the transgenic zebrafish line Tg(MPO::EGFP)^114 was used. These embryos express GFP tagged myeloperoxidase, marking neutrophils during the inflammatory response, for example following injury. […] This allowed us to subsequently assess the anti-inflammatory activity of each compound by immersing embryos in the test drug or vehicle. The embryos were examined for migration of neutrophils to the wound site. In comparison to control embryos (Figure 3A) compounds with anti-inflammatory properties had reduction of at least 50% of neutrophils recruited to the wound site (Figure 3). […] We also screened the previously identified six anti-angiogenic compounds of interest in the Tg(MPO::EGFP)^114 line.
Figure 3 The effect of thalidomide analogs on the inflammatory response to wound healing A. Zebrafish (72 hpf) embryos transgenic for a fluorescently tagged neutrophil marker Tg(MPO::EGFP)^114 were fin clipped to induce an inflammatory response and exposed to vehicle or a test compound. Broken line indicates the tail fin with cut and area of the wound site. […] The data represent the mean + the standard error of the mean.
Tg(MPO::EGFP)^114 embryos were tail fin clipped as previously detailed and incubated with test compounds or vehicle control at 72 hpf. Fish were imaged at 24 hours and the number of migratory neutrophils present at the wound site were counted. Compounds inducing an at least 50% reduction of neutrophils to the wound site were considered to have anti-inflammatory properties in this system. All larvae were assessed for viability and morphological integrity. A minimum of 10 embryos were used per concentration per drug. Error bars represent standard error of the mean.
as §1

WT Zebrafish = test: WT zebrafish embryo developmental defect (teratogenicity) screen; type: in vivo; conditions: for Eye development / eye diameter in zebrafish embryos / Pectoral fin development / fin length in zebrafish embryos: Figure 4, result in words; for Lowest effective concentration, WT Zebrafish assay: screened 1-200 μg/mL, where no activity was seen the concentration shown is the lowest screened
[3] = applied at HH stage 17-18, result in words

For `O=C1c2c(F)c(F)c(F)c(F)c2C(=O)N1c1ccc(F)cc1F` [CPS49, reference compound], the “Anti-angiogenic activity (loss of ISVs or inhibition of ISV outgrowth)” value [1] was “reduction in vessel outgrowth (white arrow), loss of vascular connectivity and a decrease in the number of forming blood vessels”.

With `O=C1c2ccccc2C(=S)N1C1CCC(=S)NC1=S` (centres unmarked) [Compound C4] the minimal effective concentration [1] was 1.5 to 100 µg/mL, the “Anti-angiogenic activity (loss of ISVs or inhibition of ISV outgrowth)” value [1] was “anti-angiogenic activity” and the “Lowest effective anti-angiogenic concentration, fli1:EGFP assay (molar)” value [1] was 4.9 µM. For the same compound, the Damage observed (chicken embryos) was “Necrotic YSM, hemorrhaging”, the “Lowest effective concentration, Chicken assay” value (chicken embryos) was 100 µg/mL and the “Defects in chicken embryo development (text and figure legend)” value (“Defects in chicken embryo development” below) (chicken embryos; [3]) was “hemorrhaging; also recorded: abnormal blood vessels and necrotic-like regions in the surrounding yolk sac membrane”. The minimal effective concentration [2] was 10 µg/mL, the “Eye development / eye diameter in zebrafish embryos” value (“Eye development / eye diameter” for short) (WT Zebrafish) was “microopthalmia; also recorded: reductions in eye diameter” and the “Pectoral fin development / fin length in zebrafish embryos” value (shortened to “Pectoral fin development / fin length”) (WT Zebrafish) was “malformation in fin development”. The “Lowest effective concentration, WT Zebrafish assay” value (WT Zebrafish) was 10 µg/mL.

For `O=C1NC(=S)CCC1N1C(=O)c2cccc([N+](=O)[O-])c2C1=O` (centres unmarked) [Compound C7], the minimal effective concentration [1] was 10 µg/mL, the “Anti-angiogenic activity (loss of ISVs or inhibition of ISV outgrowth)” value [1] was “without anti-angiogenic activities” and the “Lowest effective concentration, Chicken assay” value (chicken embryos) was 100 µg/mL. The “Defects in chicken embryo development” value (chicken embryos; [3]) was “no effect”, the “Teratogenicity in these assays” value (chicken embryos) was “non-teratogenic” and the minimal effective concentration [2] was 10 µg/mL. The “Effect on neutrophil migration to the wound site (anti-inflammatory activity)” value (shortened to “Effect on neutrophil migration”) [2] was “reduced neutrophil migration” and the “Lowest effective concentration, WT Zebrafish assay” value (WT Zebrafish) was 10 µg/mL.

In the case of `CC(=O)Oc1ccc2c(c1)C(=O)N(C1CCC(=O)NC1=O)C2=O` (centres unmarked) [Compound C18], the “Anti-angiogenic activity (loss of ISVs or inhibition of ISV outgrowth)” value [1] is reported as “anti-angiogenic activity”, the Damage observed (chicken embryos) is reported as “Necrotic YSM, stunted growth” and the “Lowest effective concentration, Chicken assay” value (chicken embryos) is reported as 100 µg/mL. The “Defects in chicken embryo development” value (chicken embryos; [3]) was “reduced body size compared to control embryos; also recorded: abnormal blood vessels and necrotic-like regions in the surrounding yolk sac membrane”, the minimal effective concentration [2] was 50 µg/mL and the “Effect on neutrophil migration” value [2] was “significantly reduce neutrophil migration”. For the same compound, the “Eye development / eye diameter” value (WT Zebrafish) was “reductions in eye diameter”, the “Pectoral fin development / fin length” value (WT Zebrafish) was “reductions” and the “Lowest effective concentration, WT Zebrafish assay” value (WT Zebrafish) was 50 µg/mL.

For `Nc1ccc2c(c1)OC(=O)C(C1CCC(=O)NC1=O)C2=O` (centres unmarked) [Compound C24], the minimal effective concentration [1] was 50 µg/mL, the Damage observed (chicken embryos) was “Necrotic YSM, hemorrhaging” and the “Lowest effective concentration, Chicken assay” value (chicken embryos) was 100 µg/mL. For the same compound, the “Defects in chicken embryo development” value (chicken embryos; [3]) was “abnormal blood vessels and necrotic-like regions in the surrounding yolk sac membrane; also recorded: hemorrhaging and necrotic-like damage in the YSM; also recorded: twisted spinal cords, necrotic-like damage in the YSM and high death rates”, the minimal effective concentration [2] was 50 µg/mL and the “Effect on neutrophil migration” value [2] was “reduced neutrophil migration”. The “Lowest effective concentration, WT Zebrafish assay” value (WT Zebrafish) was 50 µg/mL.

In the case of `Nc1cccc2c1CN(C1CCC(=O)NC1=O)C2=S` (centres unmarked) [Compound C29], the minimal effective concentration [1] is reported as 10 µg/mL, the Damage observed (chicken embryos) is reported as “Twisted spines, hemorrhaging” and the “Lowest effective concentration, Chicken assay” value (chicken embryos) is reported as 100 µg/mL. The “Defects in chicken embryo development” value (chicken embryos; [3]) was “hemorrhaging and necrotic-like damage in the YSM”, the “Defects in chicken embryo development” value (chicken embryos; in vivo) was “twisted spinal cords, necrotic-like damage in the YSM and high death rates” and the minimal effective concentration [2] was 5 µg/mL. For the same compound, the “Effect on neutrophil migration” value [2] was “reduced neutrophil migration”.

`O=C1CCC(N2C(=O)c3ccncc3C2=O)C(=O)N1` (centres unmarked) [Compound C58, 5-Aza-thalidomide] was tested, and the minimal effective concentration [1] was 10 µg/mL, the “Anti-angiogenic activity (loss of ISVs or inhibition of ISV outgrowth)” value [1] was “without anti-angiogenic activities” and the “Lowest effective concentration, Chicken assay” value (chicken embryos) was 100 µg/mL. For the same compound, the “Defects in chicken embryo development” value (chicken embryos; [3]) was “no effect”, the “Teratogenicity in these assays” value (chicken embryos) was “non-teratogenic” and the minimal effective concentration [2] was 5 µg/mL. For the same compound, the “Effect on neutrophil migration” value [2] was “reduced neutrophil migration”, the “Migration of neutrophils relative to control” value ([2]; fin clipped embryos, Figure 3) was 10 % of the control and the “Lowest effective concentration, WT Zebrafish assay” value (WT Zebrafish) was 5 µg/mL.

With `O=C1c2ccccc2C(=O)N1c1nc2ccc(C(F)(F)F)cc2s1` [Compound C59] the minimal effective concentration [1] was 10 µg/mL, the “Anti-angiogenic activity (loss of ISVs or inhibition of ISV outgrowth)” value [1] was “without anti-angiogenic activities” and the “Defects in chicken embryo development” value (chicken embryos; [3]) was “no effect”. For the same compound, the “Teratogenicity in these assays” value (chicken embryos) was “non-teratogenic”, the minimal effective concentration [2] was 100 µg/mL and the “Effect on neutrophil migration” value [2] was “reduced neutrophil migration”. For the same compound, the “Lowest effective concentration, WT Zebrafish assay” value (WT Zebrafish) was 100 µg/mL.

With `CC(N1Cc2c(N)cccc2C1=O)C12CC3CC(CC(C3)C1)C2` (centres unmarked) [Compound C81] the “Anti-angiogenic activity (loss of ISVs or inhibition of ISV outgrowth)” value [1] was “anti-angiogenic activity”, the “Lowest effective anti-angiogenic concentration, fli1:EGFP assay (molar)” value [1] was 161.07 µM and the Damage observed (chicken embryos) was “Hemorrhaging, microopthalmia,”. The “Lowest effective concentration, Chicken assay” value (chicken embryos) was 100 µg/mL, the “Defects in chicken embryo development” value (chicken embryos; [3]) was “microphthalmia; also recorded: growth reduction and hemorrhaging throughout head” and the minimal effective concentration [2] was 50 µg/mL. For the same compound, the “Pectoral fin development / fin length” value (WT Zebrafish) was “reductions” and the “Lowest effective concentration, WT Zebrafish assay” value (WT Zebrafish) was 10 µg/mL.

In the case of `O=C1c2cccc([N+](=O)[O-])c2CN1C1C2CC3CC(C2)CC1C3` (centres unmarked) [Compound C82], the “Anti-angiogenic activity (loss of ISVs or inhibition of ISV outgrowth)” value [1] is reported as “anti-angiogenic activity”, the Damage observed (chicken embryos) is reported as “Limb reduction defect” and the “Lowest effective concentration, Chicken assay” value (chicken embryos) is reported as 100 µg/mL. The “Defects in chicken embryo development” value (chicken embryos; [3]) was “limb and digit defects”, the minimal effective concentration [2] was 5 µg/mL and the “Effect on neutrophil migration” value [2] was “significantly reduce neutrophil migration”. For the same compound, the “Eye development / eye diameter” value (WT Zebrafish) was “reductions in eye diameter”, the “Pectoral fin development / fin length” value (WT Zebrafish) was “reductions” and the “Lowest effective concentration, WT Zebrafish assay” value (WT Zebrafish) was 5 µg/mL.

`Nc1cccc2c1CN(C1C3CC4CC(C3)CC1C4)C2=O` (centres unmarked) [Compound C83] was tested, and the “Anti-angiogenic activity (loss of ISVs or inhibition of ISV outgrowth)” value [1] was “anti-angiogenic activity”, the Damage observed (chicken embryos) was “Necrotic YSM, hemorrhaging” and the “Lowest effective concentration, Chicken assay” value (chicken embryos) was 100 µg/mL. For the same compound, the “Defects in chicken embryo development” value (chicken embryos; [3]) was “hemorrhaging; also recorded: abnormal blood vessels and necrotic-like regions in the surrounding yolk sac membrane”, the minimal effective concentration [2] was 20 µg/mL and the “Eye development / eye diameter” value (WT Zebrafish) was “reductions in eye diameter”. The “Lowest effective concentration, WT Zebrafish assay” value (WT Zebrafish) was 10 µg/mL.

In the case of `O=C1c2ccccc2CN1C12CC3CC(CC(O)(C3)C1)C2` [Compound C86], the minimal effective concentration [1] is reported as 10 µg/mL, the “Anti-angiogenic activity (loss of ISVs or inhibition of ISV outgrowth)” value [1] is reported as “without anti-angiogenic activities” and the “Lowest effective concentration, Chicken assay” value (chicken embryos) is reported as 100 µg/mL. The “Defects in chicken embryo development” value (chicken embryos; [3]) was “no effect”, the “Teratogenicity in these assays” value (chicken embryos) was “non-teratogenic” and the minimal effective concentration [2] was 100 µg/mL. The “Effect on neutrophil migration” value [2] was “reduced neutrophil migration”.
